{"source": "patent US8133998B2", "about": "“Bicyclic pyrimidine derivatives as calcium channel blockers” (Zalicus Pharmaceuticals, Ltd., priority 2007, dated 2012)", "key": {"[1]": {"biological_target": "T1, human α1H T-type channels (Homo sapiens, UniProt O95180)", "T1 construct": "expressed in transfected cells; host or cells: HEK 293", "T1 sequence (O95180 whole entry)": "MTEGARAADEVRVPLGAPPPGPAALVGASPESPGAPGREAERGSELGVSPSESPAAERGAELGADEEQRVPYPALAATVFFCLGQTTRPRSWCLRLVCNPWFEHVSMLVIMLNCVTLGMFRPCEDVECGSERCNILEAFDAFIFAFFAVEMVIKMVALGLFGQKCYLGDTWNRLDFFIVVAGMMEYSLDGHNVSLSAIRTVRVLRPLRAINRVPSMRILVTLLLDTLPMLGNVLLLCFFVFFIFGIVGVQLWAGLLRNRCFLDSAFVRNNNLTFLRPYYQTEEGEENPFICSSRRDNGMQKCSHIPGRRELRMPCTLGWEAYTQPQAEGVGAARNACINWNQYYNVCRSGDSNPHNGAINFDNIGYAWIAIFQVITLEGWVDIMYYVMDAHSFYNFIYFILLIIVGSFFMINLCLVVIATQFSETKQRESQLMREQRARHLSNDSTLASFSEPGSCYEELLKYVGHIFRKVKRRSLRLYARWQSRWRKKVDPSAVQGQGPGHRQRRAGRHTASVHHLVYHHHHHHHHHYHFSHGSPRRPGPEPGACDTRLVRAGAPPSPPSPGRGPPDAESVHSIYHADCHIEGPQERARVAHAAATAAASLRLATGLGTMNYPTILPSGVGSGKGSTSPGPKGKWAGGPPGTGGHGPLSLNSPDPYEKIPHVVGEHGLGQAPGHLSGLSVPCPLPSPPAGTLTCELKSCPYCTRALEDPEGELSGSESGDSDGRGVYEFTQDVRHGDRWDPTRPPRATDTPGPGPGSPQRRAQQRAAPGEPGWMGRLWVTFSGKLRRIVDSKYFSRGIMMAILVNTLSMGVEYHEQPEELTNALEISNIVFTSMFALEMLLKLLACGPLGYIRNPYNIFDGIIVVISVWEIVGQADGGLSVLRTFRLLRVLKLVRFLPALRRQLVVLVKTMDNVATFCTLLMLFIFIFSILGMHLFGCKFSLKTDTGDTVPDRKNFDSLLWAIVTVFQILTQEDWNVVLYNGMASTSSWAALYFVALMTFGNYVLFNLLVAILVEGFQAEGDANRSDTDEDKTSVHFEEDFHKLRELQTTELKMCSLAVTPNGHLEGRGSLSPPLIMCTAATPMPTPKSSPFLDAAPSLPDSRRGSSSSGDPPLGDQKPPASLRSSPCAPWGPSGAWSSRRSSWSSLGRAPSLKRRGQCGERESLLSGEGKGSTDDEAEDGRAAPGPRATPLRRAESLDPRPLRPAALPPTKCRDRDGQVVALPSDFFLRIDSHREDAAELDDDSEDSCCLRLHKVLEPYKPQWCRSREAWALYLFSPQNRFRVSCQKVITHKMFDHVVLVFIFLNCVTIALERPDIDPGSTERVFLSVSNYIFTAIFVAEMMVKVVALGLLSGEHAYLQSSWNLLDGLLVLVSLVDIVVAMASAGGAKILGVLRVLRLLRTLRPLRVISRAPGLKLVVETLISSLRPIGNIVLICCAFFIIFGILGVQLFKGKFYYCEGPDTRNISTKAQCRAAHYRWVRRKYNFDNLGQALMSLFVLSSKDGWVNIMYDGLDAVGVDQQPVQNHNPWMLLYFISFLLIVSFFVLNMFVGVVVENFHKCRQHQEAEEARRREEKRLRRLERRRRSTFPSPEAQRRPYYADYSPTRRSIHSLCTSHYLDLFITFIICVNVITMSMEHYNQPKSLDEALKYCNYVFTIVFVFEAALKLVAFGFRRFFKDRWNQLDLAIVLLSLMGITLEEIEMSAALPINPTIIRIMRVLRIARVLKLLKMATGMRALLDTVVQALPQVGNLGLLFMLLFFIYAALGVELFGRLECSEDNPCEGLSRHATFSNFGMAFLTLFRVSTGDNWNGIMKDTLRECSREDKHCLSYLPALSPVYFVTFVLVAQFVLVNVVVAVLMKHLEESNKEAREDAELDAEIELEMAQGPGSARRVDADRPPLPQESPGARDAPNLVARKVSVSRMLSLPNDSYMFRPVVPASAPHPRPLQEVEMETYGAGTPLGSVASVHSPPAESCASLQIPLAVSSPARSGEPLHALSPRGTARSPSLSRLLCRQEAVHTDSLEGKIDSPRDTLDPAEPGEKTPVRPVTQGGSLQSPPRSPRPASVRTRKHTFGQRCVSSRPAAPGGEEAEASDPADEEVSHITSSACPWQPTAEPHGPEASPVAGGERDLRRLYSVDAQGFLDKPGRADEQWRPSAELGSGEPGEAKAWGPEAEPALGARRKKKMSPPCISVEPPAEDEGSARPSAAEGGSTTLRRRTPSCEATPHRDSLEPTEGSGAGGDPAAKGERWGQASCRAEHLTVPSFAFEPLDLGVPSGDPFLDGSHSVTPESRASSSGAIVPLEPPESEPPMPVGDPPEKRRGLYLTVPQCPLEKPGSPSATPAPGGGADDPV", "assay": "T-type calcium channel block, whole cell patch clamp in HEK cells", "assay_type": "cell-based", "details": "HEK cells stably expressing human α1H; measured at 1 μM drug; mainly non-inactivated protocol", "description": "(§1) T-type calcium channel blocking activity was assayed in human embryonic kidney cells, HEK 293, stably transfected with the T-type calcium channel subunits. Briefly, cells were cultured in Dulbecco's modified eagle medium (DMEM) supplemented with 10% fetal bovine serum, 200 U/ml penicillin and 0.2 mg/ml streptomycin at 37° C. with 5% CO2. At 85% confluency cells were split with 0.25% trypsin/1 mM EDTA and plated at 10% confluency on glass coverslips. At 12 hours the medium was replaced and the cells stably transfected using a standard calcium phosphate protocol and the appropriate calcium channel cDNA's. Fresh DMEM was supplied and the cells transferred to 28° C./5% CO2. Cells were incubated for 1 to 2 days prior to whole cell recording.\n(§2) Standard patch-clamp techniques were employed to identify blockers of T-type currents. Briefly, previously described HEK cell lines stably expressing human α1G, α1H and α1I T-type channels were used for all the recordings (passage #: 4-20, 37° C., 5% CO2). Whole cell patch clamp experiments were performed using an Axopatch 200B amplifier (Axon Instruments, Burlingame, Calif.) linked to a personal computer equipped with pCLAMP software. Data were analyzed using Clampfit (Axon Instruments) and SigmaPlot 4.0 (Jandel Scientific). To obtain T-type currents, plastic dishes containing semi-confluent cells were positioned on the stage of a ZEISS AXIOVERT S100 microscope after replacing the culture medium with external solution (see below). Whole-cell patches were obtained using pipettes (borosilicate glass with filament, O.D.: 1.5 mm, I.D.: 0.86 mm, 10 cm length), fabricated on a SUTTER P-97 puller with resistance values of ˜5 MΩ (see below for internal solution).\n(§3) In the non-inactivating protocol, the holding potential is set at −110 mV and with a pre-pulse at −100 mV for 1 second prior to the test pulse at −40 mV for 50 ms. In the inactivation protocol, the pre-pulse is at approximately −85 mV for 1 second, which inactivates about 15% of the T-type channels.\n(§4) Test compounds were dissolved in external solution, 0.1-0.01% DMSO. After ˜10 min rest, they were applied by gravity close to the cell using a WPI microfil tubing. The “non-inactivated” pre-pulse was used to examine the resting block of a compound. The “inactivated” protocol was employed to study voltage-dependent block. However, the initial data shown below were mainly obtained using the non-inactivated protocol only. Kd values are shown for various compounds of the invention in Table 4 measured at 1 μM for the drug of interest except for compound 18 which was measured at 200 nM."}, "[2]": {"biological_target": "T2, human α1G T-type channels (Homo sapiens, UniProt O43497)", "T2 construct": "expressed in transfected cells; host or cells: HEK 293", "assay": "T-type calcium channel block, whole cell patch clamp in HEK cells", "assay_type": "cell-based", "details": "HEK cells stably expressing human α1G; measured at 1 μM drug; mainly non-inactivated protocol", "description": "as §1, §2, §3, §4"}, "[3]": {"biological_target": "T3, human α1I T-type channels (Homo sapiens, UniProt Q9P0X4)", "T3 construct": "expressed in transfected cells; host or cells: HEK 293", "T3 sequence (Q9P0X4 whole entry)": "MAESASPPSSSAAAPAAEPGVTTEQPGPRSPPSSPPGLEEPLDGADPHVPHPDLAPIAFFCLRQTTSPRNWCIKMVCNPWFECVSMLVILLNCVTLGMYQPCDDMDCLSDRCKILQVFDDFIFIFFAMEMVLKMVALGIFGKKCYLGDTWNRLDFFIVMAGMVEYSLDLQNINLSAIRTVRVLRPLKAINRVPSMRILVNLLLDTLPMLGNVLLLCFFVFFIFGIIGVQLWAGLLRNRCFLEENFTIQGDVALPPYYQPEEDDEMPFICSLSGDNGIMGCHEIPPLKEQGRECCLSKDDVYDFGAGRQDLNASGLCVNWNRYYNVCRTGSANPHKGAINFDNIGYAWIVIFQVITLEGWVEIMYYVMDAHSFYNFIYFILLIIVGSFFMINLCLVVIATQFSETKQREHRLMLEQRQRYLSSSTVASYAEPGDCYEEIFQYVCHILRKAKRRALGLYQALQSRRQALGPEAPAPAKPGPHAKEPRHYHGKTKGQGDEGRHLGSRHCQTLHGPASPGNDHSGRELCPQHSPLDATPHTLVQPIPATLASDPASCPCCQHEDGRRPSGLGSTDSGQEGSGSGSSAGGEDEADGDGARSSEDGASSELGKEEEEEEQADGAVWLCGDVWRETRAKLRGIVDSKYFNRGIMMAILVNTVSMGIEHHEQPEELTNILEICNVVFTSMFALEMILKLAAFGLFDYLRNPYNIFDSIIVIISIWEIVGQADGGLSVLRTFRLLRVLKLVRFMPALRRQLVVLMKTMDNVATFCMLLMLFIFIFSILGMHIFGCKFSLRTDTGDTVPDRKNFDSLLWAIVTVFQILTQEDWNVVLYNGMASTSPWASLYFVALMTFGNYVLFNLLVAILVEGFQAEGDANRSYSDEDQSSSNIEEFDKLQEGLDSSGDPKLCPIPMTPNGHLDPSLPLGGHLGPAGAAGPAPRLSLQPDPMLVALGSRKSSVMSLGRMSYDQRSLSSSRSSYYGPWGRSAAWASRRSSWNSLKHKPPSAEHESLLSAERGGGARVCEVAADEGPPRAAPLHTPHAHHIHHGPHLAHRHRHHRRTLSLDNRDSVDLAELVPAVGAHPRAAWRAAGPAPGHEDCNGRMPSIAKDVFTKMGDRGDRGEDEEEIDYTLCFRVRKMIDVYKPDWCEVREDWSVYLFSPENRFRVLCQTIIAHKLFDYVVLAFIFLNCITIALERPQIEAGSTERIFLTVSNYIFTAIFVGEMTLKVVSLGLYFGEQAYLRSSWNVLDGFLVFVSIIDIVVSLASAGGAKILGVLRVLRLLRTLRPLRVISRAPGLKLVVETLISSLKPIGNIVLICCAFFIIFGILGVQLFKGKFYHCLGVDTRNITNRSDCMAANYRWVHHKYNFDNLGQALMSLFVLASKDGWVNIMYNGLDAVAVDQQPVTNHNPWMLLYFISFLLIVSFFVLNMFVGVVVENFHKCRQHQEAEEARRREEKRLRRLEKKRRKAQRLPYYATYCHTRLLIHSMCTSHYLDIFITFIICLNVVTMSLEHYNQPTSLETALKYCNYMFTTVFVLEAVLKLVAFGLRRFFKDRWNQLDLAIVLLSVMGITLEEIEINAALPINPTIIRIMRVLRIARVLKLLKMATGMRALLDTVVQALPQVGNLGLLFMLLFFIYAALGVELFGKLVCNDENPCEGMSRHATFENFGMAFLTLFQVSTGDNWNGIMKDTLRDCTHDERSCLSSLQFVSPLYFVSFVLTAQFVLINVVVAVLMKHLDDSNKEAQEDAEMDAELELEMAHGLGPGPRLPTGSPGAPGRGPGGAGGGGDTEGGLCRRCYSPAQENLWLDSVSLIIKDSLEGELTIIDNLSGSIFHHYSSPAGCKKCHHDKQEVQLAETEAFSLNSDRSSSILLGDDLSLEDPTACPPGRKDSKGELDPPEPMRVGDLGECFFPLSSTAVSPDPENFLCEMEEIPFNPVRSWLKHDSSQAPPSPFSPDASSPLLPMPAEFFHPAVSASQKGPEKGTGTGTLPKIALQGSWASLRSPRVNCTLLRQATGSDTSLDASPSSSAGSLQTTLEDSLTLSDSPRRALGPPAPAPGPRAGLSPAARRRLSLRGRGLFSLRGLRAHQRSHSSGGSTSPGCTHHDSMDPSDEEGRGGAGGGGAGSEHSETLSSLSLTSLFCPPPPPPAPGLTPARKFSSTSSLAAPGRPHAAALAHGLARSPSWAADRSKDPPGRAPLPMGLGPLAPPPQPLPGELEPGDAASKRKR", "assay": "T-type calcium channel block, whole cell patch clamp in HEK cells", "assay_type": "cell-based", "details": "HEK cells stably expressing human α1I; measured at 1 μM drug; mainly non-inactivated protocol", "description": "as §1, §2, §3, §4"}, "[4]": {"tested_on": "T-type over L-type channels", "details": "cited from earlier work"}, "[5]": {"tested_on": "spinal nerve ligation model of neuropathic pain", "details": "rats; cited from earlier work"}}, "data": [{"compound": "Cc1c(C(=O)N2CCN(c3ccccc3)CC2)sc2ncn(C(C)C(=O)NC3CCCCC3)c(=O)c12", "note": "(stereo not drawn) [Compound 33, N-cyclohexyl-2-(5-methyl-4-oxo-6-(4-phenylpiperazine-1-carbonyl)thieno[2,3-d]pyrimidin-3(4H)-yl)propanamide]", "values": [{"measurement": "Kd", "setting": "[1]", "value": 350, "unit": "nM"}, {"measurement": "Kd", "setting": "[2]", "value": 16500, "unit": "nM"}, {"measurement": "Kd", "setting": "[3]", "value": 5130, "unit": "nM"}]}, {"compound": "Cc1c(C(=O)N2CCN(c3cccc(Cl)c3)CC2)sc2ncn(CC(=O)NC3CCCC3)c(=O)c12", "note": "[Compound 37, 2-(6-(4-(3-chlorophenyl)piperazine-1-carbonyl)-5-methyl-4-oxothieno[2,3-d]pyrimidin-3(4H)-yl)-N-cyclopentylacetamide]", "values": [{"measurement": "Kd", "setting": "[1]", "value": 170, "unit": "nM"}, {"measurement": "Kd", "setting": "[2]", "value": 300, "unit": "nM"}, {"measurement": "Kd", "setting": "[3]", "value": 3290, "unit": "nM"}]}, {"compound": "Cc1c(C(=O)N2CCN(c3ccc(Cl)c(C(F)(F)F)c3)CC2)sc2ncn(CC(=O)NC3CCCC3)c(=O)c12", "note": "[Compound 38, 2-(6-(4-(4-chloro-3-(trifluoromethyl)phenyl)piperazine-1-carbonyl)-5-methyl-4-oxothieno[2,3-d]pyrimidin-3(4H)-yl)-N-cyclopentylacetamide]", "values": [{"measurement": "Kd", "setting": "[1]", "value": 100, "unit": "nM"}, {"measurement": "Kd", "setting": "[2]", "value": 100, "unit": "nM"}, {"measurement": "Kd", "setting": "[3]", "value": 2140, "unit": "nM"}]}, {"compound": "Cc1c(C(=O)N2CCN(c3ccc(Cl)cc3)CC2)sc2ncn(CC(=O)NC3CCCC3)c(=O)c12", "note": "[Compound 42, 2-(6-(4-(4-chlorophenyl)piperazine-1-carbonyl)-5-methyl-4-oxothieno[2,3-d]pyrimidin-3(4H)-yl)-N-cyclopentylacetamide]", "values": [{"measurement": "Kd", "setting": "[1]", "value": 280, "unit": "nM"}, {"measurement": "Kd", "setting": "[2]", "value": 570, "unit": "nM"}, {"measurement": "Kd", "setting": "[3]", "value": 3840, "unit": "nM"}]}, {"compound": "Cc1c(C(=O)N2CCN(c3ccccc3)CC2)sc2ncn(CC(=O)Nc3ccccc3)c(=O)c12", "note": "[Compound 52, 2-(5-methyl-4-oxo-6-(4-phenylpiperazine-1-carbonyl)thieno[2,3-d]pyrimidin-3(4H)-yl)-N-phenylacetamide]", "values": [{"measurement": "Kd", "setting": "[1]", "value": 350, "unit": "nM"}, {"measurement": "Kd", "setting": "[2]", "value": 1010, "unit": "nM"}, {"measurement": "Kd", "setting": "[3]", "value": 8790, "unit": "nM"}]}, {"compound": "Cc1c(C(=O)N2CCN(c3cc(C(F)(F)F)cc(C(F)(F)F)c3)CC2)sc2ncn(CC(=O)Nc3ccccc3)c(=O)c12", "note": "[Compound 53, 2-(6-(4-(3,5-bis(trifluoromethyl)phenyl)piperazine-1-carbonyl)-5-methyl-4-oxothieno[2,3-d]pyrimidin-3(4H)-yl)-N-phenylacetamide]", "values": [{"measurement": "Kd", "setting": "[1]", "value": 1040, "unit": "nM"}, {"measurement": "Kd", "setting": "[2]", "value": 190, "unit": "nM"}, {"measurement": "Kd", "setting": "[3]", "value": 580, "unit": "nM"}]}, {"compound": "Cc1c(C(=O)N2CCN(c3ccccc3)CC2)sc2ncn(CC(=O)Nc3cc(F)cc(F)c3)c(=O)c12", "note": "[Compound 55, 2-(6-(4-phenylpiperazine-1-carbonyl)-5-methyl-4-oxothieno[2,3-d]pyrimidin-3(4H)-yl)-N-(3,5-difluorophenyl)acetamide]", "values": [{"measurement": "Kd", "setting": "[1]", "value": 380, "unit": "nM"}, {"measurement": "Kd", "setting": "[2]", "value": 240, "unit": "nM"}, {"measurement": "Kd", "setting": "[3]", "value": "> 950", "unit": "nM"}]}, {"compound": "Cc1c(C(=O)N2CCN(c3ccccc3F)CC2)sc2ncn(CC(=O)Nc3cccc(C(F)(F)F)c3)c(=O)c12", "note": "[Compound 62, 2-(6-(4-(2-fluorophenyl)piperazine-1-carbonyl)-5-methyl-4-oxothieno[2,3-d]pyrimidin-3(4H)-yl)-N-(3-(trifluoromethyl)phenyl)acetamide]", "values": [{"measurement": "Kd", "setting": "[1]", "value": 800, "unit": "nM"}, {"measurement": "Kd", "setting": "[2]", "value": 290, "unit": "nM"}, {"measurement": "Kd", "setting": "[3]", "value": 340, "unit": "nM"}]}, {"compound": "Cc1c(C(=O)N2CCN(c3ccccc3F)CC2)sc2ncn(CC(=O)Nc3cc(C(F)(F)F)cc(C(F)(F)F)c3)c(=O)c12", "note": "[Compound 64, N-(3,5-bis(trifluoromethyl)phenyl)-2-(6-(4-(2-fluorophenyl)piperazine-1-carbonyl)-5-methyl-4-oxothieno[2,3-d]pyrimidin-3(4H)-yl)acetamide]", "values": [{"measurement": "Kd", "setting": "[1]", "value": 700, "unit": "nM"}, {"measurement": "Kd", "setting": "[2]", "value": 200, "unit": "nM"}, {"measurement": "Kd", "setting": "[3]", "value": 80, "unit": "nM"}]}, {"compound": "CNC(=O)c1sc2ncn(CC(=O)Nc3cc(C(F)(F)F)cc(C(F)(F)F)c3)c(=O)c2c1C", "note": "[Compound 66, 3-(2-(3,5-bis(trifluoromethyl)phenylamino)-2-oxoethyl)-N,5-dimethyl-4-oxo-3,4-dihydrothieno[2,3-d]pyrimidine-6-carboxamide]", "values": [{"measurement": "Kd", "setting": "[1]", "value": 7590, "unit": "nM"}, {"measurement": "Kd", "setting": "[2]", "value": 350, "unit": "nM"}, {"measurement": "Kd", "setting": "[3]", "value": 1040, "unit": "nM"}]}, {"compound": "Cc1c(C(=O)N2CCCCC2)sc2ncn(CC(=O)Nc3cc(C(F)(F)F)cc(C(F)(F)F)c3)c(=O)c12", "note": "[Compound 69, N-(3,5-bis(trifluoromethyl)phenyl)-2-(5-methyl-4-oxo-6-(piperidine-1-carbonyl)thieno[2,3-d]pyrimidin-3(4H)-yl)acetamide]", "values": [{"measurement": "Kd", "setting": "[1]", "value": 2730, "unit": "nM"}, {"measurement": "Kd", "setting": "[2]", "value": 230, "unit": "nM"}, {"measurement": "Kd", "setting": "[3]", "value": 710, "unit": "nM"}]}, {"compound": "Cc1c(C(=O)N2CCN(c3cccc(Cl)c3)CC2)sc2ncn(CC(=O)N3CCCC3)c(=O)c12", "note": "[Compound 73, 6-(4-(3-chlorophenyl)piperazine-1-carbonyl)-5-methyl-3-(2-oxo-2-(pyrrolidin-1-yl)ethyl)thieno[2,3-d]pyrimidin-4(3H)-one]", "values": [{"measurement": "Kd", "setting": "[1]", "value": 220, "unit": "nM"}, {"measurement": "Kd", "setting": "[2]", "value": 1460, "unit": "nM"}, {"measurement": "Kd", "setting": "[3]", "value": 8800, "unit": "nM"}]}, {"compound": "Cc1c(C(=O)N2CCN(c3ccc(Cl)c(Cl)c3)CC2)sc2ncn(CC(=O)N3CCCC3)c(=O)c12", "note": "[Compound 135, 6-(4-(3,4-dichlorophenyl)piperazine-1-carbonyl)-5-methyl-3-(2-oxo-2-(pyrrolidin-1-yl)ethyl)thieno[2,3-d]pyri-midin-4(3H)-one]", "values": [{"measurement": "Kd", "setting": "[1]", "value": 330, "unit": "nM"}, {"measurement": "Kd", "setting": "[2]", "value": 9900, "unit": "nM"}, {"measurement": "Kd", "setting": "[3]", "value": 1380, "unit": "nM"}]}, {"compound": "Cc1c(C(=O)N2CCN(c3cccc(Cl)c3)CC2)sc2ncn(CC(=O)Nc3ccc(F)cc3F)c(=O)c12", "note": "[Compound 140, 2-(6-(4-(3-chlorophenyl)piperazine-1-carbonyl)-5-methyl-4-oxothieno[2,3-d]pyrimidin-3(4H)-yl)-N-(2,4 difluorophenyl)acetamide]", "values": [{"measurement": "Kd", "setting": "[1]", "value": 180, "unit": "nM"}, {"measurement": "Kd", "setting": "[2]", "value": 360, "unit": "nM"}, {"measurement": "Kd", "setting": "[3]", "value": 4990, "unit": "nM"}]}, {"compound": "COCC(=O)O[C@]1(CCN(C)CCCc2nc3ccccc3[nH]2)CCc2cc(F)ccc2[C@@H]1C(C)C", "note": "[Mibefradil]", "values": [{"measurement": "selective for T-type over L-type channels", "setting": "[4]", "value": "10-30 fold"}, {"measurement": "anti-hyperalgesic activity in the spinal nerve ligation model of neuropathic pain", "setting": "[5]", "value": "anti-hyperalgesic activity"}]}, {"compound": "CCC1(C)CC(=O)NC1=O", "note": "(stereo not drawn) [ethosuximide]", "values": [{"measurement": "anti-hyperalgesic activity in the spinal nerve ligation model of neuropathic pain", "setting": "[5]", "value": "anti-hyperalgesic activity"}]}]}
